Laboratory results taken from patent publication US6454951B1, “Photosensitive composition” (priority 1996, dated 2002).

Legend:
Escherichia coli = test: Photo-inactivation of bacteria by visible light irradiation (cell survival); conditions: in words
Vibrio anguillarum = test: as above; format: cell-based; conditions: in words

With “Meso-di(N-methyl-4-pyridyl)diphenylporphine [Di(4-N-MPy)Ph2P]” the “Photo-inactivation compared with T4MPyP” value (Escherichia coli) was “more rapid and more intense photo-inactivation”, the “Effect of washing operations on photosensitizing efficiency” value (Vibrio anguillarum; Gram-negative bacteria, FIG. 1, visible light) was “less sensitive to washing and retains a high photoactivity” and the “Photo-inactivation compared with T4MPyP” value (Vibrio anguillarum; Vibrio anguillarum, visible light) was “more rapid and more intense photo-inactivation”.
